Key:
MMP-2 = target: T1, MMP-2 (Homo sapiens, UniProt P08253); assay: K(obs) of individual phage substrates (set of 1369); type: biochemical; conditions: MMP2
T1 sequence (P08253 110-660): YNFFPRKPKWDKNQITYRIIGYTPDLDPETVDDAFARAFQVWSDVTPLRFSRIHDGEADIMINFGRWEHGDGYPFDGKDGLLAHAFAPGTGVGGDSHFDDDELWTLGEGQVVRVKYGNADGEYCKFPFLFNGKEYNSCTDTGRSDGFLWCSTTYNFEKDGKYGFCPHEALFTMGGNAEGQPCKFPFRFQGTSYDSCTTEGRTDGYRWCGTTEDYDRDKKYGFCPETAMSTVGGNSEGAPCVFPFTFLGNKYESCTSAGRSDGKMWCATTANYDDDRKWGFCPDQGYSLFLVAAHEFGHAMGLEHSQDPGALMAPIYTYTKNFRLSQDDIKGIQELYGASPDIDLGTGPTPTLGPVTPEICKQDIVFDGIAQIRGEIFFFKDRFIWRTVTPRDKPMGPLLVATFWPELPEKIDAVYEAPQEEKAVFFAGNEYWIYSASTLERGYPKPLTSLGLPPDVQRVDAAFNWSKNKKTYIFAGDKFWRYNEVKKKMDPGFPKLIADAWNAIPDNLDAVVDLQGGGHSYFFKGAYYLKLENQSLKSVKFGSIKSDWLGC

MMP-9 = MMP-9 (Homo sapiens, UniProt P14780); assay: as above; type: biochemical; conditions: MMP9, individual phage substrates, set of 1369 peptides
[1] = individual phage substrate from the set of 1369 peptides, cleavage position marked by the dash in the sequence
[2] = dash in sequence marks cleavage position
[3] = individual phage substrates, set of 1369 peptides, cleavage position marked by '-' in the sequence
[4] = '-' marks the cleavage position (P1-P1')

MMP-9, sequence (P14780 94-707): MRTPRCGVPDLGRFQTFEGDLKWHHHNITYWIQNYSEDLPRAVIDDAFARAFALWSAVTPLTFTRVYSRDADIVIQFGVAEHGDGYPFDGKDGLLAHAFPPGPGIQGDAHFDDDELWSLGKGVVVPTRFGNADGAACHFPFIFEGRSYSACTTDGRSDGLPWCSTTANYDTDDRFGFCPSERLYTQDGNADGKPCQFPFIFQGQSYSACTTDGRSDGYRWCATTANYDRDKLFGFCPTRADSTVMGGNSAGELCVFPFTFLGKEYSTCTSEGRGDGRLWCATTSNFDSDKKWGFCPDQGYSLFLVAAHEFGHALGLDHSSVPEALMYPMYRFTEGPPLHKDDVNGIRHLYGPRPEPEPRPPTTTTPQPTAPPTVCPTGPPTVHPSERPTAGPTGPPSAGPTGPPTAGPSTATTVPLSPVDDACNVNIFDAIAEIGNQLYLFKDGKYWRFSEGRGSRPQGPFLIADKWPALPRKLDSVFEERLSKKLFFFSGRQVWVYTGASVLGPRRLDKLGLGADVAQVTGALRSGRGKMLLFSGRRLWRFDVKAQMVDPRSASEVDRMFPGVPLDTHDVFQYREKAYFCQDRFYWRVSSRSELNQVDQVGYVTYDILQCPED

| Substance | Kobs (MMP-2; [1]) | Kobs (MMP-9; [2]) | Kobs (MMP-2; [3]) | Kobs (MMP-9; [4]) |
| --- | --- | --- | --- | --- |
| RNVNF-LTASG | 2409.72 M⁻¹ s⁻¹ | 484.315 M⁻¹ s⁻¹ |  |  |
| GLAYS-LQTAS | 1561.44 M⁻¹ s⁻¹ | 2476.66 M⁻¹ s⁻¹ |  |  |
| PSPRA-ITASG |  |  | 12792.1 M⁻¹ s⁻¹ | 12792.1 M⁻¹ s⁻¹ |
| ELPNF-LTASG |  |  | 951.362 M⁻¹ s⁻¹ | 231.616 M⁻¹ s⁻¹ |
| RYPVN-MTASG |  |  | 6688.74 M⁻¹ s⁻¹ | 5090.5 M⁻¹ s⁻¹ |
| SGLGM-LATTA |  |  | 418.952 M⁻¹ s⁻¹ | 84.609 M⁻¹ s⁻¹ |
| VAISR-LTASG | 12792.1 M⁻¹ s⁻¹ | 113.394 M⁻¹ s⁻¹ |  |  |
| SGTWR-LMLTA | 0 M⁻¹ s⁻¹ | 27.918 M⁻¹ s⁻¹ |  |  |
| WLYAH-YTASG | 1816.46 M⁻¹ s⁻¹ | 113.394 M⁻¹ s⁻¹ |  |  |
| GGSGA-LIAND |  |  | 874.197 M⁻¹ s⁻¹ | 0 M⁻¹ s⁻¹ |
| RGVWK-LTASG | 0 M⁻¹ s⁻¹ | 1071.29 M⁻¹ s⁻¹ |  |  |
| SGVNS-LRRTA |  |  | 726.013 M⁻¹ s⁻¹ | 0 M⁻¹ s⁻¹ |
| GNADL-IMTAS | 0 M⁻¹ s⁻¹ | 0 M⁻¹ s⁻¹ |  |  |
| ERIWA-LTASG | 1465.65 M⁻¹ s⁻¹ | 3344.37 M⁻¹ s⁻¹ |  |  |
| GRVLH-LRTAS |  |  | 3850.82 M⁻¹ s⁻¹ | 2280.5 M⁻¹ s⁻¹ |
| SGAYH-LQQTA |  |  | 0 M⁻¹ s⁻¹ | 762.325 M⁻¹ s⁻¹ |
| SGAVA-LRLTA |  |  | 1981.53 M⁻¹ s⁻¹ | 3438.54 M⁻¹ s⁻¹ |
| SGAFH-ILGTA |  |  | 1030.73 M⁻¹ s⁻¹ | 5667.28 M⁻¹ s⁻¹ |
| SKIRF-LTASG | 5269.78 M⁻¹ s⁻¹ | 9740.44 M⁻¹ s⁻¹ |  |  |

| Substance | Kobs (MMP-2; [1]) | Kobs (MMP-9; [2]) | Kobs (MMP-2; [3]) | Kobs (MMP-9; [4]) |
| --- | --- | --- | --- | --- |
| GLPQA-LLTAS |  |  | 12792.1 M⁻¹ s⁻¹ | 12792.1 M⁻¹ s⁻¹ |
| GRAWG-LITAS | 3165.09 M⁻¹ s⁻¹ | 1981.53 M⁻¹ s⁻¹ |  |  |
| LPTRW-LTASG |  |  | 7815.03 M⁻¹ s⁻¹ | 4082.43 M⁻¹ s⁻¹ |
| MVPSA-LTASG |  |  | 7015.91 M⁻¹ s⁻¹ | 8941.32 M⁻¹ s⁻¹ |
| RPAQD-LTASG |  |  | 27.918 M⁻¹ s⁻¹ | 231.616 M⁻¹ s⁻¹ |
| ESAQM-ITASG |  |  | 142.481 M⁻¹ s⁻¹ | 0 M⁻¹ s⁻¹ |
| SGYLP-LLYTA |  |  | 1196.62 M⁻¹ s⁻¹ | 12792.1 M⁻¹ s⁻¹ |
| GGSGP-LHQTK | 1154.21 M⁻¹ s⁻¹ | 2218.08 M⁻¹ s⁻¹ |  |  |
| GRPHP-LSTAS |  |  | 12792.1 M⁻¹ s⁻¹ | 8941.32 M⁻¹ s⁻¹ |
| SRVRN-LTASG |  |  | 8321.48 M⁻¹ s⁻¹ | 4470.66 M⁻¹ s⁻¹ |
| GGSGR-LNMRL |  |  | 0 M⁻¹ s⁻¹ | 0 M⁻¹ s⁻¹ |
| SGPSD-LHATA |  |  | 12792.1 M⁻¹ s⁻¹ | 12792.1 M⁻¹ s⁻¹ |
| HLFQW-LTASG | 7015.91 M⁻¹ s⁻¹ | 0 M⁻¹ s⁻¹ |  |  |
| SGPMH-LRSTA |  |  | 8321.48 M⁻¹ s⁻¹ | 10866.7 M⁻¹ s⁻¹ |
| GTPLG-QITAS |  |  | 12792.1 M⁻¹ s⁻¹ | 5461.43 M⁻¹ s⁻¹ |
| SKVLF-LTASG |  |  | 3079.62 M⁻¹ s⁻¹ | 3079.62 M⁻¹ s⁻¹ |
| RKALN-LTASG |  |  | 4613.14 M⁻¹ s⁻¹ | 5667.28 M⁻¹ s⁻¹ |
| GSGWR-LTVGT | 0 M⁻¹ s⁻¹ | 27.918 M⁻¹ s⁻¹ |  |  |
| SGLQN-LMLTA |  |  | 113.394 M⁻¹ s⁻¹ | 113.394 M⁻¹ s⁻¹ |

| Substance | Kobs (MMP-2; [1]) | Kobs (MMP-9; [2]) | Kobs (MMP-2; [3]) | Kobs (MMP-9; [4]) |
| --- | --- | --- | --- | --- |
| LPALN-MTASG |  |  | 1513.13 M⁻¹ s⁻¹ | 4335.13 M⁻¹ s⁻¹ |
| GAPDQ-LSTAS | 142.481 M⁻¹ s⁻¹ | 323.705 M⁻¹ s⁻¹ |  |  |
| GGSGA-LHRPG | 1071.29 M⁻¹ s⁻¹ | 0 M⁻¹ s⁻¹ |  |  |
| GEAWH-LFTAS | 292.668 M⁻¹ s⁻¹ | 355.093 M⁻¹ s⁻¹ |  |  |
| SGMLS-LVITA |  |  | 0 M⁻¹ s⁻¹ | 0 M⁻¹ s⁻¹ |
| SGGSG-LRMWI |  |  | 484.315 M⁻¹ s⁻¹ | 1239.69 M⁻¹ s⁻¹ |
| ANAMN-LTASG |  |  | 1513.13 M⁻¹ s⁻¹ | 2761.81 M⁻¹ s⁻¹ |
| RSPLM-MTASG |  |  | 4922.1 M⁻¹ s⁻¹ | 12792.1 M⁻¹ s⁻¹ |
| GVAKP-LWTAS |  |  | 484.315 M⁻¹ s⁻¹ | 2280.5 M⁻¹ s⁻¹ |
| GVAGA-LYTAS |  |  | 2097.28 M⁻¹ s⁻¹ | 0 M⁻¹ s⁻¹ |
| SGLLN-MYITA |  |  | 0 M⁻¹ s⁻¹ | 0 M⁻¹ s⁻¹ |
| SGAGR-LRATA | 142.481 M⁻¹ s⁻¹ | 517.582 M⁻¹ s⁻¹ |  |  |
| GGLGM-MLTAS |  |  | 836.403 M⁻¹ s⁻¹ | 0 M⁻¹ s⁻¹ |
| IEYLN-YTASG |  |  | 231.616 M⁻¹ s⁻¹ | 355.093 M⁻¹ s⁻¹ |
| SGPAP-LVLTA |  |  | 12792.1 M⁻¹ s⁻¹ | 6688.74 M⁻¹ s⁻¹ |
| WSVQL-LTASG |  |  | 551.253 M⁻¹ s⁻¹ | 355.093 M⁻¹ s⁻¹ |
| NRIGN-FTASG |  |  | 7815.03 M⁻¹ s⁻¹ | 0 M⁻¹ s⁻¹ |
| YYASH-LTASG | 7015.91 M⁻¹ s⁻¹ | 1373.05 M⁻¹ s⁻¹ |  |  |
| ESPSF-LTASG | 12792.1 M⁻¹ s⁻¹ | 3741.87 M⁻¹ s⁻¹ |  |  |

Second part, the substance after the results:

| Kobs (MMP-2; [1]) | Kobs (MMP-9; [2]) | Kobs (MMP-2; [3]) | Kobs (MMP-9; [4]) | Substance |
| --- | --- | --- | --- | --- |
| 12792.1 M⁻¹ s⁻¹ | 7815.03 M⁻¹ s⁻¹ |  |  | SGGRN-LTATA |
|  |  | 0 M⁻¹ s⁻¹ | 0 M⁻¹ s⁻¹ | GVLMR-LNTAS |
|  |  | 1327.88 M⁻¹ s⁻¹ | 27.918 M⁻¹ s⁻¹ | SGANS-LVATA |
|  |  | 7386.83 M⁻¹ s⁻¹ | 799.117 M⁻¹ s⁻¹ | NKTAW-LTASG |
| 5889.62 M⁻¹ s⁻¹ | 951.362 M⁻¹ s⁻¹ |  |  | GPAGH-LSTAS |
|  |  | 8941.32 M⁻¹ s⁻¹ | 726.013 M⁻¹ s⁻¹ | MAYQS-LTASG |
|  |  | 8941.32 M⁻¹ s⁻¹ | 12792.1 M⁻¹ s⁻¹ | SGPLS-ILNTA |
|  |  | 0 M⁻¹ s⁻¹ | 0 M⁻¹ s⁻¹ | SGYRF-MTLTA |
| 0 M⁻¹ s⁻¹ | 0 M⁻¹ s⁻¹ |  |  | GGSGR-LMYER |
|  |  | 0 M⁻¹ s⁻¹ | 386.839 M⁻¹ s⁻¹ | SGPHL-LIRTA |
|  |  | 0 M⁻¹ s⁻¹ | 0 M⁻¹ s⁻¹ | SGIQT-MKVTA |
|  |  | 12792.1 M⁻¹ s⁻¹ | 12792.1 M⁻¹ s⁻¹ | MVPHM-LTASG |
| 12792.1 M⁻¹ s⁻¹ | 8941.32 M⁻¹ s⁻¹ |  |  | SGPRS-LSQTA |
|  |  | 12792.1 M⁻¹ s⁻¹ | 1112.44 M⁻¹ s⁻¹ | GRVAH-LRTAS |
| 386.839 M⁻¹ s⁻¹ | 0 M⁻¹ s⁻¹ |  |  | PTLWR-ITASG |
|  |  | 12792.1 M⁻¹ s⁻¹ | 12792.1 M⁻¹ s⁻¹ | RVPRG-LTASG |
| 12792.1 M⁻¹ s⁻¹ | 12792.1 M⁻¹ s⁻¹ |  |  | KAPLK-LTASG |
|  |  | 113.394 M⁻¹ s⁻¹ | 0 M⁻¹ s⁻¹ | GGSGA-LQRLP |
| 0 M⁻¹ s⁻¹ | 84.609 M⁻¹ s⁻¹ |  |  | TTSLR-LTASG |
|  |  | 5889.62 M⁻¹ s⁻¹ | 3964.21 M⁻¹ s⁻¹ | SGPSN-MLRTA |
|  |  | 0 M⁻¹ s⁻¹ | 0 M⁻¹ s⁻¹ | AGLDL-LTASG |
|  |  | 7386.83 M⁻¹ s⁻¹ | 1513.13 M⁻¹ s⁻¹ | WVANM-ITASG |
|  |  | 12792.1 M⁻¹ s⁻¹ | 8941.32 M⁻¹ s⁻¹ | HLPTA-LTASG |

| Kobs (MMP-2; [1]) | Kobs (MMP-9; [2]) | Kobs (MMP-2; [3]) | Kobs (MMP-9; [4]) | Substance |
| --- | --- | --- | --- | --- |
|  |  | 12792.1 M⁻¹ s⁻¹ | 113.394 M⁻¹ s⁻¹ | IMMAY-LTASG |
| 292.668 M⁻¹ s⁻¹ | 0 M⁻¹ s⁻¹ |  |  | GFHRS-IRTAS |
| 1154.21 M⁻¹ s⁻¹ | 726.013 M⁻¹ s⁻¹ |  |  | SGWLN-LRSTA |
|  |  | 1763.55 M⁻¹ s⁻¹ | 0 M⁻¹ s⁻¹ | GTMMS-LMTAS |
|  |  | 5889.62 M⁻¹ s⁻¹ | 27.918 M⁻¹ s⁻¹ | ATASF-LTASG |
| 113.394 M⁻¹ s⁻¹ | 0 M⁻¹ s⁻¹ |  |  | SGVYR-LELTA |
| 654.784 M⁻¹ s⁻¹ | 551.253 M⁻¹ s⁻¹ |  |  | SGVFS-LKLTA |
|  |  | 27.918 M⁻¹ s⁻¹ | 0 M⁻¹ s⁻¹ | GSAHL-LLTAS |
| 517.582 M⁻¹ s⁻¹ | 355.093 M⁻¹ s⁻¹ |  |  | GVINQ-LRTAS |
|  |  | 0 M⁻¹ s⁻¹ | 0 M⁻¹ s⁻¹ | GVLHS-LRTAS |
| 10866.7 M⁻¹ s⁻¹ | 386.839 M⁻¹ s⁻¹ |  |  | GWVGH-LSTAS |
|  |  | 6688.74 M⁻¹ s⁻¹ | 3964.21 M⁻¹ s⁻¹ | DRIRH-LTASG |
| 0 M⁻¹ s⁻¹ | 0 M⁻¹ s⁻¹ |  |  | GGSGS-LSVWK |
| 84.609 M⁻¹ s⁻¹ | 0 M⁻¹ s⁻¹ |  |  | GSGLA-LKMGT |
|  |  | 12792.1 M⁻¹ s⁻¹ | 323.705 M⁻¹ s⁻¹ | TALGY-LTASG |
|  |  | 7386.83 M⁻¹ s⁻¹ | 6131.32 M⁻¹ s⁻¹ | GQPVP-MLTAS |
| 0 M⁻¹ s⁻¹ | 0 M⁻¹ s⁻¹ |  |  | SGSAR-LTLTA |
| 912.511 M⁻¹ s⁻¹ | 912.511 M⁻¹ s⁻¹ |  |  | ARAQH-ITASG |
|  |  | 12792.1 M⁻¹ s⁻¹ | 12792.1 M⁻¹ s⁻¹ | GQPFA-LSTAS |
| 484.315 M⁻¹ s⁻¹ | 4922.1 M⁻¹ s⁻¹ |  |  | GVPFM-ILTAS |
|  |  | 1196.62 M⁻¹ s⁻¹ | 12792.1 M⁻¹ s⁻¹ | ISPML-LTASG |
|  |  | 5090.5 M⁻¹ s⁻¹ | 12792.1 M⁻¹ s⁻¹ | LQPLT-ITASG |
| 1071.29 M⁻¹ s⁻¹ | 1513.13 M⁻¹ s⁻¹ |  |  | SGPSR-ILMTA |
